This passage reports Ki results from ChEMBL document CHEMBL1152228, “Using proton nuclear magnetic resonance to study the mode of ribonuclease A inhibition by competitive and noncompetitive inhibitors” (Bioorg Med Chem Lett, 2008).

The target of this assay is T1, Ribonuclease pancreatic (Homo sapiens, UniProt P07998).
T1 sequence (P07998 whole entry): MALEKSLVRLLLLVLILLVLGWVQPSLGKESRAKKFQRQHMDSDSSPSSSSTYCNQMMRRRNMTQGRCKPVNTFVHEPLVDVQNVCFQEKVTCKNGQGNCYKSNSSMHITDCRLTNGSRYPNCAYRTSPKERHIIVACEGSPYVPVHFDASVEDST
The experiment in a line: Inhibition of ribonucleolytic activity of RNase A by agarose gel based assay.

The Ki is the dissociation constant of the complex between target and ligand, obtained from inhibition or displacement. The low end stands for higher affinity, the high end for lower affinity. In turn, `O=C(O)C1CCN([C@H]2[C@H](O)[C@H](n3ccc(=O)[nH]c3=O)O[C@@H]2CO)CC1` displayed a Ki of 103 µM.

Take `CCOC(=O)C1CCN([C@H]2[C@H](O)[C@H](n3ccc(=O)[nH]c3=O)O[C@@H]2CO)CC1`: affinity was put at a Ki of 120 µM.
